Experimental data as given in the supplement of paper PMC10307832.

Key:
Assay in all cases: relative viability (nuclei count vs DMSO), 5 days (fraction); higher = more cells survive
Etoposide + Lapatinib = compound: COc1cc([C@@H]2c3cc4c(cc3[C@@H](O[C@@H]3O[C@@H]5CO[C@@H](C)O[C@H]5[C@H](O)[C@H]3O)[C@H]3COC(=O)[C@H]23)OCO4)cc(OC)c1O [Etoposide] + CS(=O)(=O)CCNCc1ccc(-c2ccc3ncnc(Nc4ccc(OCc5cccc(F)c5)c(Cl)c4)c3c2)o1 [Lapatinib] (partner 2 µM)
Outline: (§1)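 Relative viability is defined as nuclei in treated wells over nuclei in vehicle wells. Duplicate plates were run and medians reported. Lung cancer cell lines in 1536-well plates were dosed by pin tool one day after seeding, with one drug or with a fixed anchor-drug dose plus five library-drug doses (not always all listed) in √10 steps, and nuclei were counted after 5 days.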

Etoposide + Navitoclax = compound: COc1cc([C@@H]2c3cc4c(cc3[C@@H](O[C@@H]3O[C@@H]5CO[C@@H](C)O[C@H]5[C@H](O)[C@H]3O)[C@H]3COC(=O)[C@H]23)OCO4)cc(OC)c1O [Etoposide] + CC1(C)CCC(c2ccc(Cl)cc2)=C(CN2CCN(c3ccc(C(=O)NS(=O)(=O)c4ccc(N[C@H](CCN5CCOCC5)CSc5ccccc5)c(S(=O)(=O)C(F)(F)F)c4)cc3)CC2)C1 [Navitoclax] (partner 0.5 µM)
Outline: as §1

Etoposide + Palbociclib = compound: COc1cc([C@@H]2c3cc4c(cc3[C@@H](O[C@@H]3O[C@@H]5CO[C@@H](C)O[C@H]5[C@H](O)[C@H]3O)[C@H]3COC(=O)[C@H]23)OCO4)cc(OC)c1O [Etoposide] + CC(=O)c1c(C)c2cnc(Nc3ccc(N4CCNCC4)cn3)nc2n(C2CCCC2)c1=O [Palbociclib] (partner 0.5 µM)
Outline: as §1

Bleomycin + Olaparib = compound: CC1=C(N=C(N=C1N)[C@H](CC(=O)N)NC[C@@H](C(=O)N)N)C(=O)N[C@@H]([C@H](C2=CN=CN2)OC3C(C(C(C(O3)CO)O)O)OC4C(C(C(C(O4)CO)O)OC(=O)N)O)C(=O)N[C@H](C)[C@H]([C@H](C)C(=O)N[C@@H]([C@@H](C)O)C(=O)NCCC5=NC(=CS5)C6=NC(=CS6)C(=O)NCCC[S+](C)C)O [Bleomycin] + O=C(c1cc(Cc2n[nH]c(=O)c3ccccc23)ccc1F)N1CCN(C(=O)C2CC2)CC1 [Olaparib] (partner 8 µM); details: main component drawn
Outline: as §1

## UMC-11
Etoposide + Lapatinib; first compound 0.01 µM
  relative viability: 0.973
Etoposide + Lapatinib; first compound 0.03162 µM
  relative viability: 1.05
Etoposide + Lapatinib; first compound 0.1 µM
  relative viability: 0.407
Etoposide + Lapatinib; first compound 0.3162 µM
  relative viability: 0.46
Etoposide + Lapatinib; first compound 1 µM
  relative viability: 0.239
Etoposide + Navitoclax; first compound 0.01 µM
  relative viability: 0.344
Etoposide + Navitoclax; first compound 0.03162 µM
  relative viability: 0.307
Etoposide + Navitoclax; first compound 0.3162 µM
  relative viability: 0.193
Etoposide + Navitoclax; first compound 1 µM
  relative viability: 0.155
Etoposide + Palbociclib; first compound 0.01 µM
  relative viability: 0.327
Etoposide + Palbociclib; first compound 0.03162 µM
  relative viability: 0.308
Etoposide + Palbociclib; first compound 0.1 µM
  relative viability: 0.312
Etoposide + Palbociclib; first compound 0.3162 µM
  relative viability: 0.313
Etoposide + Palbociclib; first compound 1 µM
  relative viability: 0.298
Bleomycin + Olaparib; first compound 0.01 µM
  relative viability: 0.36
Bleomycin + Olaparib; first compound 0.03162 µM
  relative viability: 0.342
Bleomycin + Olaparib; first compound 0.1 µM
  relative viability: 0.371
Bleomycin + Olaparib; first compound 0.3162 µM
  relative viability: 0.393
Bleomycin + Olaparib; first compound 1 µM
  relative viability: 0.271
